Source: US6277867A, “Pesticide compounds, compositions and process for the preparation thereof” (priority 1995, dated 2001)

Tests used:
flies = test: Comparative investigations with known reference synergists on flies treated with carbofuran; format: in vivo; settings: flies treated with carbofuran and 1000 ng of the synergist
Excerpt: These SR50 ratios were compared to those of the new compounds prepared by us.

[1] = test system: house fly (Musca domestica); settings: in vivo, topical_or_ocular, 1440 min
Description: Investigation of Synergistic Activity on House Fly (Musca domestica) Following Topical Application
In two parallel experiments 10 female. 2-4 day old house flies were treated on the vental side of their thorax with 0.2 μl of the test solution, with the help of Hamilton MicroLab P microdispenser. Beside fixed synergist dose of 1000 ng/fly the animals were treated with carbofuran at a dose of 20 ng/fly. For solvent cellosolve was used. Selection and counting of the flies were performed under the action of CO2. After treatment the flies were kept in plastic cups covered with tulle. Mortality after 24 hours was expressed in %.

[2] = test system: cotton bollworm (Helicoverpa armigera); test: Synergistic activity on cotton bollworm following topical application; settings: in vivo
Description: Investigation of Synergistic Activity on Cotton Bollworm (Helicoverpa armigera) Following Topical Application
Treatment was performed similarity as described in Example 1. but L2 stadium grubs of cotton bollworms (Helicoverpa armigera) were treated as test animals. From the 24 hour dose--mortality data the LD50 (ng/grub) values were determined using probit analysis. None of the synergists acted at the applied 1000 ng/grub dose. Synergist ratio was calculated as the quotient of the LD50 values of carbofuran administered alone, and with the synergist. The experiments were performed in 2-4 replica.

[3] = test system: house fly (Musca domestica); test: Effect of the active ingredient:synergist ratio on the synergistic activity (flies)
Description: Effect of the Active Ingredient:Synergist Ratio on the Synergistic Activity
Treatment was performed as described in Example 1. using Hamilton MicroLab P microdispenser. In two parallel experiments 10 female -3 day old flies were treated on the ventral side of their thorax with 0.2 μl test solution. Beside 1000-400-200-80 ng/fly fixed doses of the synergist they were treated with constant 20 ng/fly CARBOFURAN®. Selection and counting of the flies were performed under the action of CO2. After treatment the flies were kept in plastic cups covered with tulle. After 24 hours mortality % was recorded. Depending on the results the experiments were performed in 2-4 replica.

[4] = test system: resistant house fly, INSEL strain; test: Synergistic activity on resistant house fly, INSEL strain; format: in vivo, Musca domestica; settings: active ingredient alone
Description: Investigation of Synergistic Activity on Resistant House Fly (Musca domestica) Populations
Investigation was carried out as described in biological Example 1. LD50 values and synergist ratios were determined as given in Example 2.

[5] = carbofuran 20 ng/fly + synergist 80 ng/fly
[6] = carbofuran 20 ng/fly + synergist 200 ng/fly
[7] = carbofuran 20 ng/fly + synergist 400 ng/fly
[8] = house fly, in vivo, topical_or_ocular

For “5-[(2-propynyl)-methyl]-1,3-benzodioxole”, the “Synergist ratio SR50” value (flies) was 10.60.

In the case of `C#CCON=C(C)c1cccc2ccccc12` [1-acetonaphthon-oxim (2-propynyl) ether], the “Synergist ratio SR50” value (flies) is reported as 7.79.

`C#CCOc1cccc2ccccc12` [1-naphthyl 2-propargyl ether] was tested, and the “Synergist ratio SR50” value (flies) was 6.52.

In the case of `C#CCCOc1cccc2ccccc12` [1-naphthyl 3-butynyl ether], the “Synergist ratio SR50” value (flies) is reported as 7.95.

For `C#CCOCc1cccc2ccccc12` [1-naphthylmethyl 2-propynyl ether], the “Synergist ratio SR50” value (flies) was 5.28.

`C#CCOc1cccc2c1OC(C)(C)C2` [2,3-dihydro-2,2-dimethyl-7-(2-propynyloxy)benzofurane] was tested, and the “Synergist ratio SR50” value (flies) was 1.8.

With `C#CCOCC1COc2ccccc2O1` (centres unmarked) [2-[(2-propynyloxy)methyl]-1,4-benzodioxane] the “Synergist ratio SR50” value (flies) was 5.58.

With `CC#CCOc1ccc2ccccc2c1` [2-naphthyl 2-butynyl ether] the “Synergist ratio SR50” value (flies) was 7.72.

With `CC#CCCOc1ccc2ccccc2c1` [2-naphthyl 3-pentynyl ether] the “Synergist ratio SR50” value (flies) was 9.97.

`C#CCOC(=O)c1cccc2ccccc12` [2-propynyll-naphthyl-carboxylate] was tested, and the “Synergist ratio SR50” value (flies) was 4.11.

`C#CCOCc1c(Cl)cccc1Cl` [(2,6-dichlorophenyl)methyl 2-propynyl ether] was tested, and the “Synergist ratio SR50” value (flies) was 20.92.

In the case of `C#CCOCc1ccc(OC)c(OC)c1` [(2-propynyloxy-methyl)-3,4-dimethoxy-benzene], the “Synergist ratio SR50” value (flies) is reported as 6.58.

With `C#CCN(C)C(C)c1ccc2ccccc2c1` (stereo not drawn) [Compound 251, N-α-dimethyl-N-2-propynyl-β-naphthyl-methylamine] the mortality % [1] was 37% and the Synergist ratio [2] was > 5.

In the case of `C#CCOC(C)c1ccc2ccccc2c1` (centres unmarked) [Compound 256, 2-[1-(2-propynyloxy)-ethyl]-naphthalene], the mortality % [1] is reported as 32% and the Synergist ratio [2] is reported as > 5.

With `CC#CCOC(C)c1cccc2ccccc12` (centres unmarked) [Compound 292, 1-[1-(2-butynyloxy)-ethyl]-naphthalene] the mortality % [1] was 72% and the Synergist ratio [2] was > 5.

In the case of `CC#CCOC(C)c1ccc2ccccc2c1` (centres unmarked) [Compound 293, 2-[1-(2-butynyloxy)-ethyl]-naphthalene], the mortality % [1] is reported as 45% and the Synergist ratio [2] is reported as > 5.

With `CC#CCO[C@@H](C)c1cccc2ccccc12` [Compound 330, S-(-)-1-[1-(2-butynyloxy)-ethyl]-naphthalene] the mortality % [1] was 62% and the Synergist ratio [2] was > 5.

With `CC#CCO[C@H](C)c1cccc2ccccc12` [Compound 331, R-(+)-1-[1-(2-butynyloxy)-ethyl]-naphthalene] the mortality % [1] was 72% and the Synergist ratio [2] was > 5.

With `C#CCCOc1cccc2c1OC(C)(C)C2` [Compound 377, 2,3-dihydro, 2,2-dimethyl-7-(3-butynyloxy)-benzofuran] the mortality % [1] was 57% and the Synergist ratio [2] was > 5.

With `C#CC(C)OCc1cccc2ccccc12` (centres unmarked) [Compound 389] the mortality % [1] was 27% and the Synergist ratio [2] was > 5.

`CC#CCCOc1cccc2c1OC(C)(C)C2` [Compound 418, 2,3-dihydro-2,2-dimethyl-7-(3-pentynyloxy)-benzofuran] was tested, and the “Synergist ratio SR50” value (flies) was 20.5, the mortality % [1] was 63% and the Synergist ratio [2] was > 5.

`CC#CCOC(CC)c1cccc2ccccc12` (centres unmarked) [Compound 454, 1-[1-(2-butynyloxy)-propyl]-naphthalene] was tested, and the “24 hour mortality (%)” value [3, 5] was 40%, the “24 hour mortality (%)” value [3, 6] was 45% and the “24 hour mortality (%)” value [3, 7] was 60%. For the same compound, the “24 hour mortality (%)” value [3, 8] was 75%, the mortality % [1] was 75% and the Synergist ratio [2] was > 5.

In the case of `CC#CCO[C@H](C)c1ccc2ccccc2c1` [Compound 455, R-(+)-2-[1-(2-butynyloxy)-ethyl]-naphthalene], the “24 hour mortality (%)” value [3, 5] is reported as 25%, the “24 hour mortality (%)” value [3, 6] is reported as 48% and the “24 hour mortality (%)” value [3, 7] is reported as 63%. The “24 hour mortality (%)” value [3, 8] was 77%, the mortality % [1] was 70% and the Synergist ratio [2] was > 5.

For `CC#CCO[C@@H](C)c1ccc2ccccc2c1` [Compound 456, S-(-)-2-[1-(2-butynyloxy)-ethyl]-naphthalene], the mortality % [1] was 47% and the Synergist ratio [2] was > 5.

In the case of `CC#CCOC(c1cccc2ccccc12)C(C)C` (centres unmarked) [Compound 472, 1-[2-methyl-1-(2-butynyloxy)-propyl]-naphthalene], the mortality % [1] is reported as 68% and the Synergist ratio [2] is reported as > 5.

With `C#CCO[C@@H](C)c1ccc2ccccc2c1` [Compound 474, S-(-)-2-[1-(2-propynyloxy)-ethyl]-naphthalene] the mortality % [1] was 50% and the Synergist ratio [2] was > 5.

`C#CCO[C@H](C)c1ccc2ccccc2c1` [Compound 475, R-(+)-2-1[1-(2-propynyloxy)-ethyl]-naphthalene] was tested, and the mortality % [1] was 47% and the Synergist ratio [2] was > 5.

`CC#CCOC1CCc2ccccc21` (centres unmarked) [Compound 479, 1-(2-Butynyloxy)-indane] was tested, and the mortality % [1] was 58% and the Synergist ratio [2] was > 5.

With `CC#CCOCc1ccc(OC)c(OC)c1` [Compound 493, (2-Butynyloxy-methyl)-3,4-dimethoxy-benzene] the “24 hour mortality (%)” value [3, 5] was 75%, the “24 hour mortality (%)” value [3, 6] was 88% and the “24 hour mortality (%)” value [3, 7] was 94%. For the same compound, the “24 hour mortality (%)” value [3, 8] was 100%, the “Synergist ratio SR50” value (flies) was 32.84 and the mortality % [1] was 100%. For the same compound, the Synergist ratio [2] was > 5.

`CC#CCOC1CCCc2ccccc21` (centres unmarked) [Compound 498, 1-(2-Butynyloxy)-1,2,3,4-tetrahydro-naphthalene] was tested, and the mortality % [1] was 70% and the Synergist ratio [2] was > 5.

`C#CCOC(=O)c1ccc2c(c1)OCO2` [Compound 501, 2-Propynyl 1,3-benzodioxol-5-carboxylate] was tested, and the “24 hour mortality (%)” value [3, 5] was 60%, the “24 hour mortality (%)” value [3, 6] was 75% and the “24 hour mortality (%)” value [3, 7] was 80%. The “24 hour mortality (%)” value [3, 8] was 80%, the mortality % [1] was 53% and the Synergist ratio [2] was > 5.

For `CC#CCOC(=O)c1ccc2c(c1)OCO2` [Compound 502, 2-Butynyl 1,3-benzodioxol-5-carboxylate], the “Synergist ratio SR50” value (flies) was 6.28, the mortality % [1] was 47% and the Synergist ratio [2] was > 5.

For `CC#CCOCC1COc2ccccc2O1` (centres unmarked) [Compound 510, 2-[(2-Butynyloxy)-methyl]-1,4-benzodioxane], the “Synergist ratio SR50” value (flies) was 18.32, the mortality % [1] was 75% and the Synergist ratio [2] was > 5.

For `CC#CCNC(=O)c1ccc2c(c1)OCO2` [Compound 523, N-(2-butynyl) 3,4-methylene-dioxy-benzamide], the mortality % [1] was 17% and the Synergist ratio [2] was > 5.

With `CC#CCNC(=O)c1ccc2ccccc2c1` [Compound 535, N-(2-Butynyl)-2-naphthamide] the mortality % [1] was 27% and the Synergist ratio [2] was > 5.

With `CC#CCN1C(=O)c2ccccc2C1=O` [Compound 537, N-(But-2-ynyl)-phthalimide] the Synergist ratio [2] was > 5.

`CC#CCOCC1Cc2ccccc2O1` (centres unmarked) [Compound 539, 2-(2-butynyloxy-methyl)-2,3-dihydro-benzofuran] was tested, and the mortality % [1] was 48% and the Synergist ratio [2] was > 5.

In the case of `CC#CCCOc1ccc([N+](=O)[O-])cc1` [Compound 540, 1-(3-pentynyloxy)-4-nitro-benzene], the mortality % [1] is reported as 60% and the Synergist ratio [2] is reported as > 5.

`C#CCNC(=O)c1cccc2ccccc12` [Compound 541, N-(2-Propynyl)-1-naphthamide] was tested, and the mortality % [1] was 46% and the Synergist ratio [2] was > 5.

`CC#CCNC(=O)c1cccc2ccccc12` [Compound 542, N-(2-Butynyl)-1-naphthamide] was tested, and the mortality % [1] was 42% and the Synergist ratio [2] was > 5.

`C#CCCOc1ccc([N+](=O)[O-])cc1` [Compound 547, 1-(3-butynyloxy)-4-nitro-benzene] gave a mortality % [1] of 47%.

In the case of `CC#CCOC(c1ccc2c(c1)OCO2)C1CCCCC1` (centres unmarked) [Compound 554, 5-[(But-2-ynyloxy)-cyclohexyl-methyl]-1,3-benzodioxole], the mortality % [1] is reported as 58% and the Synergist ratio [2] is reported as > 5.

With `CC#CCOC(c1ccccc1)c1ccc2c(c1)OCO2` (centres unmarked) [Compound 555, 5-[(But-2-ynyloxy)-phenyl-methyl]-1,3-benzodioxole] the mortality % [1] was 90% and the Synergist ratio [2] was > 5.

For `CC#CCON=C(C)c1cccc2ccccc12` [Compound 571, 1-Aceto-naphthon-oxim-(2-butynyl)-ether], the “Synergist ratio SR50” value (flies) was 10.02, the mortality % [1] was 53% and the Synergist ratio [2] was > 5.

`CC#CCON=C(C)c1ccc(OC)c(OC)c1` [Compound 572, 3,4-Dimethoxy-acetophenonoxym-(2-butynyl)-ether] was tested, and the mortality % [1] was 55% and the Synergist ratio [2] was > 5.

`C=CCC1=C(C)[C@@H](OC(=O)[C@@H]2[C@@H](C=C(C)C)C2(C)C)CC1=O` [ESBIOL, reference compound] gave an LD50 [4] of 10653 ng/fly.
